Test results as given in patent EP2017264A1, “Substituted phenyl propargyl compounds, method for their manufacture and their use as herbicides and plant growth regulators” (BAYER CROPSCIENCE AG, priority 2007, dated 2009).

Assay: physchem
Description: "LogP" = Verteilungskoeffizient in einem Zweiphasengemisch aus n-Octanol und Wasser.
Die log P-Daten wurden in Übereinstimmung mit der EEC Direktive 79/831, Anlage V.A8 (Annex V.A8) mittels HPLC (High Performance Liquid Chromatography) auf einer Umkehrphase-Säule (reversed-phase column) (C18) mit folgenden Methoden bestimmt: Temperatur: 40°C; Mobile Phase: 0,1 % bzw. 0,06 %ige wässrige Ameisensäure oder 0,1 % wässriger Phosphorsäure und Acetonitril; linearer Gradient von 10% Acetonitril bis 90% bzw. 95 % Acetonitril. Die Kalibrierung wurde ausgeführt mit Hilfe unverzweigter Alkan-2-one (bestehend aus 3 bis 13 bzw.16 Kohlenstoff-Atomen) mit bekannten IogP-Werten (Bestimmung der IogP-Werte über die Retentionszeiten mittels linearer Interpolation zwischen zwei nachfolgenden Alkanonen).

| SMILES | chromatographic logP |
| --- | --- |
| COc1ccc(C=NOCC#Cc2cc(SC)c(F)c(SC)c2)cn1 [Beispiel 5.148] | 4.57 |
| CCC(=NOCC#Cc1cccc(CC#N)c1)c1ccccc1 [Beispiel 1.406] | 3.87 |
| COc1ncc(C=NOCC#Cc2cccc(CC#N)c2)cc1F [Beispiel 5.044] | 3.24 |
| CCC(=NOCC#Cc1cccc(SC)c1)c1cccc(C)n1 [Beispiel 3.095] | 4.77 |
| CCC(=NOCC#Cc1cccc(C(F)(F)F)c1)c1ccc(F)cc1 [Beispiel 1.412] | 5.13 |
| COc1cc(F)ccc1C=NOCC#Cc1cc(C)c(F)c(SC)c1 [Beispiel 1.441] | 5.05 |
| CCSc1cccc(C#CCON=Cc2ccc(OC)nc2)c1 [Beispiel 5.127] | 4.34 |
| COc1ccccc1C=NOCC#Cc1cc(C)c(F)c(SC)c1 [Beispiel 1.440] | 5.01 |
| COc1ccc(C=NOCC#Cc2ccc(F)c([S+](C)[O-])c2F)cn1 (centres unmarked) [Beispiel 5.140] | 2.17 |
| CCC(=NOCC#Cc1cccc(CC#N)c1)c1cccc(Cl)c1Cl [Beispiel 1.419] | 4.84 |
| COc1ccc(C=NOCC#Cc2ccc(C#N)c(SC)c2)cn1 [Beispiel 5.126] | 3.49 |
| CCSc1cc(C#CCON=Cc2ccccc2OC)ccc1C [Beispiel 1.424] | 5.33 |
| C[S+]([O-])c1cccc(C#CCON=Cc2ccc(OCC(F)(F)F)nc2OCC(F)(F)F)c1 (centres unmarked) [Beispiel 5.193] | 3.4 |
| CCC(=NOCC#Cc1cccc(SC)c1)c1ccc(C)cc1 [Beispiel 1.409] | 5.36 |
| CCC(=NOCC#Cc1cccc(SC)c1)c1ccccc1F [Beispiel 1.417] | 4.84 |
| CCC(=NOCC#Cc1cccc(OC)c1)c1ccccc1F [Beispiel 1.415] | 4.42 |
| COc1ccc(C=NOCC#Cc2cccc(S(C)(=O)=O)c2)cn1 [Beispiel 5.122] | 2.5 |
| COc1ccc(C=NOCC#Cc2cccc(SC(C)C)c2)cn1 [Beispiel 5.136] | 4.8 |
| CCSc1cc(C#CCON=Cc2ccc(F)cc2OC)ccc1OC [Beispiel 1.399] | 4.53 |
| COc1cc(F)ccc1C=NOCC#Cc1ccccc1SC [Beispiel 1.442] | 4.29 |
| CSc1ccc(C=NOCC#Cc2cccc(CC#N)c2)cn1 [Beispiel 5.187] | 3.18 |
| COc1cc(F)ccc1C=NOCC#Cc1ccc(C#N)c(SC)c1 [Beispiel 1.395] | 3.97 |
| CCSc1cccc(C#CCON=Cc2ccc(F)cc2OC)c1 [Beispiel 1.069] | 4.9 |

| SMILES | chromatographic logP |
| --- | --- |
| CCC(=NOCC#Cc1cccc(CC#N)c1)c1ccc(F)cc1 [Beispiel 1.414] | 3.88 |
| CCC(=NOCC#Cc1cccc(S(C)(=O)=O)c1)c1cccc(C)n1 [Beispiel 3.097] | 2.93 |
| CCOc1ncc(C=NOCC#Cc2cccc(SC)c2)cc1F [Beispiel 5.199] | 4.68 |
| N#CCc1cccc(C#CCON=Cc2ccc(OCC(F)(F)F)nc2OCC(F)(F)F)c1 [Beispiel 5.192] | 4.03 |
| COc1ncc(Cl)nc1C=NOCC#Cc1cccc(CC#N)c1 [Beispiel 4.094] | 3.09 |
| COc1ncc(C=NOCC#Cc2cccc(SC)c2)cc1Br [Beispiel 5.197] | 4.81 |
| CCC(=NOCC#Cc1cccc([S+](C)[O-])c1)c1cccc(C)n1 (centres unmarked) [Beispiel 3.096] | 2.21 |
| COc1ccccc1C=NOCC#Cc1ccc(OC)c(SC)c1 [Beispiel 1.434] | 4.24 |
| COc1ccc(C=NOCC#Cc2cccc(CC#N)c2)c(OC)n1 [Beispiel 5.184] | 3.79 |
| CCC(=NOCC#Cc1cccc([S+](C)[O-])c1)c1ccc(C)cc1 (centres unmarked) [Beispiel 1.421] | 3.46 |
| COc1ccc(C=NOCC#Cc2cccc(SC)c2)c(OC)c1 [Beispiel 1.388] | 4.4 |
| COc1ncccc1C=NOCC#Cc1ccc(C)c([S+](C)[O-])c1 (centres unmarked) [Beispiel 5.168] | 2.42 |
| COc1nccnc1C=NOCC#Cc1cccc(S(C)(=O)=O)c1 [Beispiel 4.091] | 1.99 |
| Cc1ccc(C#CCON=Cc2cccnc2)cc1[S+](C)[O-] (centres unmarked) [Beispiel 5.170] | 1.37 |
| COc1cc(F)ccc1C=NOCC#Cc1ccc(F)c(F)c1[S+](C)[O-] (centres unmarked) [Beispiel 1.448] | 2.78 |
| C=CCSc1cccc(C#CCON=Cc2ccc(OC)nc2)c1 [Beispiel 5.137] | 4.72 |
| CCC(=NOCC#Cc1cccc(OC)c1)c1ccc(C)cc1 [Beispiel 1.407] | 4.92 |
| C[S+]([O-])c1cccc(C#CCON=Cc2ccc(C3CCCC3)nc2)c1 (centres unmarked) [Beispiel 5.196] | 3.43 |
| CCC(=NOCC#Cc1cccc(SC)c1)c1ccc(F)cc1 [Beispiel 1.413] | 4.97 |
| COc1cc(F)ccc1C=NOCC#Cc1ccccc1[S+](C)[O-] (centres unmarked) [Beispiel 1.446] | 2.86 |
| COc1ccccc1C=NOCC#Cc1ccc(F)c([S+](C)[O-])c1F (centres unmarked) [Beispiel 1.437] | 2.66 |
| CSc1cccc(C#CC(C)ON=Cc2cccc(C)n2)c1 (centres unmarked) [Beispiel 3.085] | 3.79 |
| COc1ccccc1C=NOCC#Cc1ccccc1SC [Beispiel 1.386] | 4.23 |

| SMILES | chromatographic logP |
| --- | --- |
| COc1ncc(Cl)nc1C=NOCC#Cc1cccc([S+](C)[O-])c1 (centres unmarked) [Beispiel 4.098] | 2.18 |
| COc1nccnc1C=NOCC#Cc1cccc(SC)c1 [Beispiel 4.084] | 3.34 |
| CCC(=NOCC#Cc1cccc([S+](C)[O-])c1)c1ccccc1 (centres unmarked) [Beispiel 1.420] | 2.93 |
| CS(=O)(=O)c1ccc(C=NOCC#Cc2cccc(CC#N)c2)cn1 [Beispiel 5.200] | 2.18 |
| CCC(=NOCC#Cc1cccc(CC#N)c1)c1cccc(C)n1 [Beispiel 3.098] | 3.5 |
| CSc1cccc(C#CCON=Cc2nccnc2SC)c1 [Beispiel 4.078] | 4.18 |
| COc1ccccc1C=NOCC#Cc1ccc(C#N)c(SC)c1 [Beispiel 1.394] | 3.94 |
| COc1cc(F)ccc1C=NOCC#Cc1ccc(F)c(SC)c1F [Beispiel 1.435] | 4.54 |
| CCOc1ncccc1C=NOCC#Cc1ccc(C)c([S+](C)[O-])c1 (centres unmarked) [Beispiel 5.171] | 2.83 |
| CC[S+]([O-])c1cc(C#CCON=Cc2ccccc2OC)ccc1C (centres unmarked) [Beispiel 1.426] | 3.05 |
| COc1ccccc1C=NOCC#Cc1cccc(OC(F)(F)F)c1 [Beispiel 1.428] | 4.72 |
| COc1ccc(C=NOCC#Cc2cccc([S+](C)[O-])c2)c(OC)c1 (centres unmarked) [Beispiel 1.389] | 2.42 |
| CCOc1nc(C=NOCC#Cc2cccc(SC)c2)ccc1F [Beispiel 3.125] | 4.76 |
| CC(=NOCC#Cc1cccc(CC#N)c1)c1cccc(C)n1 [Beispiel 3.094] | 2.96 |
| CSc1cccc(C#CCON=Cc2ccc(C3CCCC3)nc2)c1 [Beispiel 5.194] | 5.44 |
| COc1ccccc1C=NOCC#Cc1cc(C)c(F)c([S+](C)[O-])c1 (centres unmarked) [Beispiel 1.444] | 3.32 |
| CCC(=NOCC#Cc1cccc(C(F)(F)F)c1)c1ccccc1F [Beispiel 1.416] | 5.03 |
| Cc1ccc(C#CCON=Cc2ccccc2Oc2ccc(Cl)cc2)cc1[S+](C)[O-] (centres unmarked) [Beispiel 1.379] | 4.11 |
| CCC(=NOCC#Cc1cccc(OC)c1)c1ccccc1 [Beispiel 1.403] | 4.45 |
| CCSc1cc(C#CCON=Cc2ccc(F)cc2OC)ccc1C [Beispiel 1.425] | 5.38 |
| CC[S+]([O-])c1cc(C#CCON=Cc2ccc(OC)nc2)ccc1OC (centres unmarked) [Beispiel 5.132] | 2.42 |
| C[S+]([O-])c1cccc(C#CCON=Cc2cc(C(F)(F)F)c(Cl)cn2)c1 (centres unmarked) [Beispiel 3.121] | 2.96 |
| CC(=NOCC#Cc1cccc(S(C)(=O)=O)c1)c1cccc(C)n1 [Beispiel 3.093] | 2.4 |

| SMILES | chromatographic logP |
| --- | --- |
| CC[S+]([O-])c1cc(C#CCON=Cc2ccc(F)cc2OC)ccc1C (centres unmarked) [Beispiel 1.427] | 3.15 |
| COc1ccccc1C=NOCC#Cc1ccccc1[S+](C)[O-] (centres unmarked) [Beispiel 1.445] | 2.73 |
| CCC(=NOCC#Cc1cccc(OC)c1)c1ccc(F)cc1 [Beispiel 1.411] | 4.54 |
| CSc1cccc(C#CCON=Cc2ccc(SC)nc2)c1 [Beispiel 5.186] | 4.22 |
| COc1ccc(C=NOCC#Cc2ccccc2[S+](C)[O-])cn1 (centres unmarked) [Beispiel 5.145] | 2.19 |
| CC[S+]([O-])c1cc(C#CCON=Cc2ccc(F)cc2OC)ccc1OC (centres unmarked) [Beispiel 1.402] | 3.19 |
| CCC(=NOCC#Cc1cccc(SC)c1)c1ccccc1 [Beispiel 1.405] | 4.84 |
| COc1ccc(C=NOCC#Cc2ccc(F)c(F)c2[S+](C)[O-])cn1 (centres unmarked) [Beispiel 5.147] | 2.17 |
| CSc1cccc(C#CCON=Cc2ccc(OCC(F)(F)F)nc2OCC(F)(F)F)c1 [Beispiel 5.191] | 5.08 |
| COc1nccnc1C=NOCC#Cc1cccc([S+](C)[O-])c1 (centres unmarked) [Beispiel 4.090] | 1.57 |
| COc1cc(F)ccc1C=NOCC#Cc1ccc(F)c([S+](C)[O-])c1F (centres unmarked) [Beispiel 1.438] | 2.75 |
| COc1nccnc1C=NOCC#Cc1cccc(CC#N)c1 [Beispiel 4.086] | 2.4 |
| CCC(=NOCC#Cc1cccc([S+](C)[O-])c1)c1cccc(Cl)c1Cl (centres unmarked) [Beispiel 1.422] | 4.12 |
| CC[S+]([O-])c1cc(C#CCON=Cc2ccccc2OC)ccc1OC (centres unmarked) [Beispiel 1.401] | 3.07 |
| CC[S+]([O-])c1cc(C#CCON=Cc2ccc(OC)nc2)ccc1C (centres unmarked) [Beispiel 5.134] | 2.51 |
| CCSc1cc(C#CCON=Cc2ccc(OC)nc2)ccc1OC [Beispiel 5.131] | 4.03 |
| COc1cc(F)ccc1C=NOCC#Cc1cccc(OC(F)(F)F)c1 [Beispiel 1.429] | 4.77 |
| CSc1cccc(C#CCON=Cc2cc(C(F)(F)F)c(Cl)cn2)c1 [Beispiel 3.120] | 4.92 |
| COc1ccc(C=NOCC#Cc2cc(C)c(F)c(SC)c2)cn1 [Beispiel 5.142] | 4.54 |
| COc1ccccc1C=NOCC#Cc1cc(SC)c(F)c(SC)c1 [Beispiel 1.450] | 5.05 |
